Test results from patent US20240408099A1, “COMBINATION […] OF KRAS G12D INHIBITORS WITH Pan ErbB FAMILY INHIBITORS” (MIRATI THERAPEUTICS, INC., priority 2021, published 2024).

Experiments:
Assay type in all cases: in vivo, nude/nude mice
AsPC-1 cells = assay: AsPC-1 TGI-42 pancreatic cancer xenograft, tumor volumes; settings: 12.5 mg/kg QD
Method: (§1) Immunocompromised nude/nude mice are inoculated in the right hind flank with cells harboring a KRas G12D mutation. When tumor volumes reach between 200-400 mm^3 in size, the mice are divided into four to five groups of 5 mice each. The first group is administered vehicle only. […] The fourth or last groups are administered the single agent dose of the KRas G12D inhibitor using the twice daily schedule and/or the 2 sequential days followed by 5 days off schedule in combination with the single agent dose of one of the EGFR inhibitors. The treatment period varies from cell line to cell line but typically is between 15-40 days. Tumor volumes are measured using a caliper every two-three days and tumor volumes are calculated by the formula: […].
(§2) 20 to 30 nude/nude mice per study were inoculated in the right hind limb with 5×10^6 LS180 cells, AsPC-1 cells, GP2D cells, Panc 02.03 cells, SW1990 cells, or SNU-1033 cells.
Experimental Procedures. 30 nude/nude mice were inoculated with AsPC-1 cells in the right hind flank. When the tumors reached ˜300 mm^3 six treatment groups were established with five mice per group.

Panc 02.03 = Panc 02.03 TGI-43 pancreatic cancer xenograft (Table 5), tumor volumes; settings: for Average Tumor Volumes: 12.5 mg/kg QD (once daily)
Method: as §1, with “The treatment period varies from cell line to cell line but typically is between 15-40 days.” left out
20 to 30 nude/nude mice per study were inoculated in the right hind limb with 5×10^6 LS180 cells, AsPC-1 cells, GP2D cells, Panc 02.03 cells, SW1990 cells, or SNU-1033 cells. […]

SW1990 cells = assay: SW1990 TGI MDS #200407-807 pancreatic cancer xenograft, tumor volumes; settings: for Average Tumor Volumes: 12.5 mg/kg QD once daily
Method: as §1, with “The treatment period varies from cell line to cell line but typically is between 15-40 days.” left out
as §2
Experimental Procedures. 30 nude/nude mice were inoculated with SW1990 cells in the right hind flank. When the tumors reached ˜300 mm^3 six treatment groups were established with five mice per group.

**Q.** What does the source list for `CN(C)C/C=C/C(=O)Nc1cc2c(Nc3ccc(F)c(Cl)c3)ncnc2cc1OC1CCOC1` (stereo not shown) [Afatinib, (E)-N-(4-((3-chloro-4-fluorophenyl)amino)-7-((tetrahydrofuran-3-yl)oxy)quinazolin-6-yl)-4-(dimethylamino)but-2-enamide, reference compound]?
**A.** tumor growth inhibition (AsPC-1 cells; single agent, Day 34): 11%; Average Tumor Volumes (AsPC-1 cells; Study Day 1): 328.208 mm^3; Average Tumor Volumes (AsPC-1 cells; Study Day 6): 463.11 mm^3; Average Tumor Volumes (AsPC-1 cells; Study Day 9): 641.776 mm^3; Average Tumor Volumes (AsPC-1 cells; Study Day 13): 720.894 mm^3; Average Tumor Volumes (AsPC-1 cells; Study Day 16): 768.716 mm^3; Average Tumor Volumes (AsPC-1 cells; Study Day 20): 964.434 mm^3; Average Tumor Volumes (AsPC-1 cells; Study Day 23): 1002.602 mm^3; Average Tumor Volumes (AsPC-1 cells; Study Day 27): 1211.064 mm^3; Average Tumor Volumes (AsPC-1 cells; Study Day 30): 1289.494 mm^3; Average Tumor Volumes (AsPC-1 cells; Study Day 34): 1252.045 mm^3; Average Tumor Volumes (Panc 02.03; Study Day 1): 331.548 mm^3; Average Tumor Volumes (Panc 02.03; Study Day 4): 361.83 mm^3; Average Tumor Volumes (Panc 02.03; Study Day 8): 398.444 mm^3; Average Tumor Volumes (Panc 02.03; Study Day 11): 470.498 mm^3; Average Tumor Volumes (Panc 02.03; Study Day 15): 660.352 mm^3; Average Tumor Volumes (Panc 02.03; Study Day 18): 784.04 mm^3; Average Tumor Volumes (Panc 02.03; Study Day 22): 904.724 mm^3; tumor growth inhibition (Panc 02.03; 12.5 mg/kg daily, single agent, Day 22): 27%; tumor growth inhibition (SW1990 cells; 12.5 mg/kg QD daily, single agent, Day 23): 20%; Average Tumor Volumes (SW1990 cells; Study Day 2): 455.54 mm^3; Average Tumor Volumes (SW1990 cells; Study Day 6): 536.86 mm^3; Average Tumor Volumes (SW1990 cells; Study Day 9): 624.98 mm^3; Average Tumor Volumes (SW1990 cells; Study Day 13): 698.56 mm^3; Average Tumor Volumes (SW1990 cells; Study Day 16): 778.74 mm^3; Average Tumor Volumes (SW1990 cells; Study Day 20): 1141.575 mm^3; Average Tumor Volumes (SW1990 cells; Study Day 23): 1293.5 mm^3; Average Tumor Volumes (SW1990 cells; Study Day −1): 363.4 mm^3
